# Reference: ChEMBL document CHEMBL1158516, “Synthesis and application of a photoaffinity analog of dehydroepiandrosterone (DHEA)” (Bioorg Med Chem Lett, 2010)
# Active and inactive are the calls of the source. The rule behind the calls is not given here.
# Tested on: Endothelial cell
# Assay: Binding affinity to DHEA receptor in bovine aortic endothelial cells exposed to UV for 15 mins at 5 nM after 1 hr by chemiluminescence
# Type: cell-based
# Conditions: Bos taurus
row,Structure (SMILES),Activity
1,C[C@]12CC[C@H](O)CC1=CC[C@@H]1[C@@H]2CC[C@]2(C)/C(=N/OCC(=O)NCCCCCCNC(=O)[C@H](CCCCNC(=O)CCCC[C@@H]3SC[C@@H]4NC(=O)N[C@@H]43)NC(=O)c3ccc(C(=O)c4ccccc4)cc3)CC[C@@H]12,Active
2,O=C(CCCC[C@@H]1SC[C@@H]2NC(=O)N[C@@H]21)NCCCC[C@H](NC(=O)c1ccc(C(=O)c2ccccc2)cc1)C(=O)O,inactive
